This passage reports IC50 results from BindingDB's records for doi:10.1016/j.bmc.2009.03.061 (Gsk, 2009).

As a reminder, the IC50 is the concentration that inhibits the measured activity by half. Read a low IC50 as higher potency.

Test [1] deals with cAMP-specific 3',5'-cyclic phosphodiesterase 4B (Homo sapiens, UniProt Q07343). Description: Enzyme Inhibition Assay. The note with it: pH 7.5; 23 °C. The protocol:
(§1) Inhibition of PDE4 is measured using a luminescence-coupled assay system developed by Cambrex. This assay system couples the formation of AMP, derived from PDE4-catalyzyed hydrolysis of cAMP, to the formation of ATP. The ATP is then used as a substrate for Luciferase and results in light as a signal output. […] This assay is used in a quenched assay format, where PDE4 enzyme and cAMP substrate are added sequentially to a 384 well assay plate (Greiner784075) pre-stamped with compound at the desired concentration. The reaction is incubated at room temperature for 1 h, and then is quenched by the addition of enzyme stop solution and then the light signal is generated by the addition of detection reagent. […] For inhibition curves, compounds were diluted using a 3-fold serial dilution and tested at 11 concentrations. Curves were analysed as describe above using ActivityBase and XLfit , and results were expressed as pIC50 values.

Test [2] addresses cAMP-specific 3',5'-cyclic phosphodiesterase 4D (Homo sapiens, UniProt Q08499). In words: Enzyme Inhibition Assay. Conditions: pH 7.5; 23 °C. The procedure:
as §1

SMILES strings stand for the structures.

Chain of cAMP-specific 3',5'-cyclic phosphodiesterase 4D (Q08499 whole entry): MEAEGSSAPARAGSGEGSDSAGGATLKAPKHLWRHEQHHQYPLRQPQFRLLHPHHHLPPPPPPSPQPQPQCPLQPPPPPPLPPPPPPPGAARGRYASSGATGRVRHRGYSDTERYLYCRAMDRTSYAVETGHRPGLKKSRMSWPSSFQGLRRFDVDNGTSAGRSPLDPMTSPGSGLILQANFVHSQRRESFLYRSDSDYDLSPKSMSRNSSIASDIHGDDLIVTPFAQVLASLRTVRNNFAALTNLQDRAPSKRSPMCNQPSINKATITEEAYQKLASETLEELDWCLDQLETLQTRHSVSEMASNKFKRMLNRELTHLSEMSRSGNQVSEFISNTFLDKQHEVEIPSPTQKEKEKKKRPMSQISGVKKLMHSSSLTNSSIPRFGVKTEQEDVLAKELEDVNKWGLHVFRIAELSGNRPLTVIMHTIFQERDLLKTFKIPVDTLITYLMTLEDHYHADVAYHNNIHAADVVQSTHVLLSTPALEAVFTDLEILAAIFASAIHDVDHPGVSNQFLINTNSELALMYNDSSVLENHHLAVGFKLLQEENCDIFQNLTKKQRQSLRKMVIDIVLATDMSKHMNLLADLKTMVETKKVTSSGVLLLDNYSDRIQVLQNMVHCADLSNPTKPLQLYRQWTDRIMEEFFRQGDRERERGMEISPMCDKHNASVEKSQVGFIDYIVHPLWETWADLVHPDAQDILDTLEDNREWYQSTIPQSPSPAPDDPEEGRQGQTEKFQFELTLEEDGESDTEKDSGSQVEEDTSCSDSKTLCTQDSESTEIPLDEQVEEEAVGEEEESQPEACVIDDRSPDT
Chain of cAMP-specific 3',5'-cyclic phosphodiesterase 4B (Q07343 whole entry): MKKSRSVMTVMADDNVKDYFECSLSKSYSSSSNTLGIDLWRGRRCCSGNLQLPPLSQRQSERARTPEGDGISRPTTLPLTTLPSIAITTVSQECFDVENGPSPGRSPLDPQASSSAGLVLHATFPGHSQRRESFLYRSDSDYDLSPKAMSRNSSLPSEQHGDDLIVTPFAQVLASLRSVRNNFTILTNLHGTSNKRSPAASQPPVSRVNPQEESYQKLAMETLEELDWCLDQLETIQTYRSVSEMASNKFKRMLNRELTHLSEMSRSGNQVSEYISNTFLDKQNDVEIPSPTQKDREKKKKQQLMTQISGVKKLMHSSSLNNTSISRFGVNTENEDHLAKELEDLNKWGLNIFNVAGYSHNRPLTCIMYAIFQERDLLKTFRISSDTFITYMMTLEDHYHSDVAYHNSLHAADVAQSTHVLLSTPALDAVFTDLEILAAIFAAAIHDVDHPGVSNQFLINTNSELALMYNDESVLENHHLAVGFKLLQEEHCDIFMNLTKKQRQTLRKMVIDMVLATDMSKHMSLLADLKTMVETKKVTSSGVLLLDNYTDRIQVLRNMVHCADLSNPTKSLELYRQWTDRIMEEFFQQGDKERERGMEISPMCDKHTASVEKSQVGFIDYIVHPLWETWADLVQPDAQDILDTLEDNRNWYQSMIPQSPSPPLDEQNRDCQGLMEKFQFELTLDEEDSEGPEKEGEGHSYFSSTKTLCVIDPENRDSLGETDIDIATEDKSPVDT

Take `Cc1cccc(C)c1C(=O)C1CCCc2sc(NC(=O)c3ccccc3[N+](=O)[O-])c(C(N)=O)c21` (centres undefined) [tetrahydrobenzothiophene (THBT), 18]: the IC50 in test [1] came to 5010 nM; in test [2], 2510 nM.

In the case of `CCCC1CCc2c(sc(NC(=O)c3ccccc3[N+](=O)[O-])c2C(N)=O)C1` (centres undefined) [tetrahydrobenzothiophene (THBT), 24], the half-inhibitory concentration (IC50) was 100 nM in test [1] and 2510 nM in test [2].
